In patent US20140017187A1, “Use of 5-(7-methoxy-3,3-dimethyl-2,3-dihydro-1-benzoxepin-5-yl)-3-methyl-penta-2,4-dienoic acid as a cosmetic” (Merck Patent GmbH, priority 2008, published 2014):

How the values were obtained:
[1] = Phototoxic and photo-allergenic potential (in house data)
[2] = Mutagenicity studies (in house data)
B16-V melanoma cells = experiment: Inhibition of melanin synthesis in B16-V melanoma cells (alpha-MSH stimulated); assay type: cell-based; conditions: 72 h, alpha-MSH stimulation
Protocol: DMSO is the solvent as negative and IBMX (3-Isobutyl-1-methylxantine) is our positive control. Kojic acid (KA) is the known reference ingredient for skin whitening.
B16-V melanoma cells were incubated for 72 h with assay medium containing different amounts of test substances. The concentration depends on the results of the MTT-Assay. Only concentrations without effect on viability (after 24 h incubation) were used for further melanin evaluation. Every 24 hours medium was changed and replaced by fresh assay medium containing the compounds and alpha-MSH (stimulation of melanin synthesis). The cell number was determined and the cells got lysed using 1M NaOH. Afterwards the amount of melanin was measured at 405 nm with a microplatereader (Safire2™, Tecan). Different concentrations of synthetic melanin were used to produce a calibration curve. Melanin content was expressed as pg/cell.

[3] = Skin sensitization test (in house data)
human skin model = experiment: cDNA microarray gene expression profiling (Affymetrix) of treated skin equivalents, GeneGO MetaCore analysis; assay type: cell-based
Protocol: One of the advantages of cDNA microarray is the possibility to observe the expression pattern of the whole genes and compare with different conditions. This is the first study to determine the gene expression profiles of Compound-treated human skin. For the analysis of deregulated gene expression induced by substance Compound, treated and control samples from a human skin model were analyzed with Affymetrix oligonucleotide microarrays. Skin has been among the first organs analysed using DNA-Microarrays. In addition, epidermal keratinocytes have been the target of many studies because they respond to a rich variety of inflammatory and immunmodulating cytokines, hormones, vitamins, ultraviolet (UV) light, toxins and physical injury. Altered gene expression after applying substance Compound was analysed with an Affymetrix system.
For gene expression studies skin equivalents were treated with 50 μL of 2 relevant substance Compound with a concentration of c=50 μM in PBS-buffer/DMSO. Buffer-treated skin equivalents served as controls.
A ratio (log 2) value of zero indicates no regulation, whereas positive (log 2) values indicate an upregulation and negative (log 2) values a downregulation of the relevant gene.
The experiment contains 759 genes with the specified threshold (Appendix A)
GeneGO's Metacore (Pathways and Maps) Software.
Enrichment analysis consists of matching gene IDs for the common, similar and unique sets of the uploaded files with gene IDs in functional ontologies in MetaCore. The ontologies include canonical pathway maps, GeneGo cellular processes, GO cellular processes and diseases categories. The degree of “relevance” to different categories for the uploaded datasets is defined by p-values, so that the lower p-value gets higher priority.

[4] = tested on: epidermal differentiation proteins; experiment: In vitro expression of epidermal differentiation proteins; assay type: cell-based; conditions: own unpublished results
[5] = cDNA microarray, skin equivalents, 50 μM

expression of Caspase 14, P57/KIP2 (human skin model; [5]): significantly upregulated
expression of RXRA (retinoid X receptors A) (human skin model; [5]): upregulation
expression of SCARB, INSIG2, ATP binding cassette and VLDLR genes (human skin model; [5]): upregulation
SMILES: COc1ccc2c(c1)C(/C=C/C(C)=C/C(=O)O)=CC(C)(C)CO2 [Compound, 5-(7-methoxy-3,3-dimethyl-2,3-dihydro-1-benzoxepin-5-yl)-3-methyl-penta-2,4-dienoic acid]
phototoxicity [1]: no phototoxic
genotoxicity [2]: not genotoxic
melanin inhibiting activity (melanin content pg/cell, FIG. 1) (B16-V melanoma cells): superb melanin inhibiting activity
melanin inhibiting activity compared with kojic acid (FIG. 1) (B16-V melanoma cells): significantly better than kojic acid
skin sensitization [3]: no skin sensitization
Ratio as Log2 value, gene CASP14 (human skin model; Caspase 14 precursor, skin equivalents, 50 μM, vs buffer-treated control): 1.44 Log2
Ratio as Log2 value, gene UGCG (human skin model; Ceramide glucosyltransferase, skin equivalents, 50 μM, vs buffer-treated control): 0.7977 Log2
Ratio as Log2 value, gene CDSN (human skin model; Corneodesmosin precursor, skin equivalents, 50 μM, vs buffer-treated control): 1.207 Log2
Ratio as Log2 value, gene ELF3 (human skin model; ETS-related transcription factor Elf-3, skin equivalents, 50 μM, vs buffer-treated control): −1.46 Log2
Ratio as Log2 value, gene EMP1 (human skin model; Epithelial membrane protein 1, skin equivalents, 50 μM, vs buffer-treated control): 1.278 Log2
Ratio as Log2 value, gene KRT34 (human skin model; Keratin, type I cuticular Ha4, skin equivalents, 50 μM, vs buffer-treated control): 1.695 Log2
Ratio as Log2 value, gene KRT10 (human skin model; Keratin, type I cytoskeletal 10, skin equivalents, 50 μM, vs buffer-treated control): −0.6644 Log2
Ratio as Log2 value, gene KRT13 (human skin model; Keratin, type I cytoskeletal 13, skin equivalents, 50 μM, vs buffer-treated control): −0.8963 Log2
Ratio as Log2 value, gene LAMA3 (human skin model; Laminin subunit alpha-3 precursor, skin equivalents, 50 μM, vs buffer-treated control): 0.6648 Log2
Ratio as Log2 value, gene LAMB3 (human skin model; Laminin subunit beta-3 precursor, skin equivalents, 50 μM, vs buffer-treated control): 1.168 Log2
Ratio as Log2 value, gene LCE2B (human skin model; Late cornified envelope protein 2B, skin equivalents, 50 μM, vs buffer-treated control): 1.326 Log2
Ratio as Log2 value, gene PTHLH (human skin model; Parathyroid hormone-related protein, skin equivalents, 50 μM, vs buffer-treated control): −0.7916 Log2
Ratio as Log2 value, gene S100a7 (human skin model; Protein S100-A7, skin equivalents, 50 μM, vs buffer-treated control): −0.6784 Log2
Ratio as Log2 value, gene OVOL1 (human skin model; Putative transcription factor Ovo-like 1, skin equivalents, 50 μM, vs buffer-treated control): 1.064 Log2
expression of FABP4 and Leptin (human skin model; cDNA microarray data): significantly upregulated
expression of Fibronectin, Elastin and Laminin (human skin model; [5]): upregulated significantly
expression of HAS2 gene (hyaluronan synthase 2) (human skin model; [5]): upregulated
expression of IL-6, TNF-alpha induced proteins, IL-8, CCL8, CCL2, CXCL2, CXCL12, CXCL3, CXCL5 and ICAM-1 (human skin model; [5]): significantly downregulated
expression of MMP genes MMP9, MMP14, MMP11 (human skin model; [5]): down regulated
expression of S100A7, S100A7A and S100A12 (human skin model; [5]): downregulated
Compound vs. Control, ratio Log(2) value (human skin model; gene ABCG1 (ABCG1_HUMAN, ATP-binding cassette sub-family G member 1)): 1.297 Log(2)
Compound vs. Control, ratio Log(2) value (human skin model; gene CASP14 (CASPE_HUMAN, Caspase-14 precursor)): 1.44 Log(2)
Compound vs. Control, ratio Log(2) value (human skin model; gene CCL2 (CCL2_HUMAN, C-C motif chemokine 2 precursor)): −1.731 Log(2)
Compound vs. Control, ratio Log(2) value (human skin model; gene CCL8 (CCL8_HUMAN, C-C motif chemokine 8 precursor)): −2.505 Log(2)
Compound vs. Control, ratio Log(2) value (human skin model; gene CDKN1C (CDN1C_HUMAN, Cyclin-dependent kinase inhibitor 1C)): 0.8737 Log(2)
Compound vs. Control, ratio Log(2) value (human skin model; gene CERK (CERK1_HUMAN, Ceramide kinase)): 0.729 Log(2)
Compound vs. Control, ratio Log(2) value (human skin model; gene CLDN17 (CLD17_HUMAN, Claudin-17)): 2.19 Log(2)
Compound vs. Control, ratio Log(2) value (human skin model; gene COL4A3BP (C43BP_HUMAN, Collagen type IV alpha-3-binding protein)): 1.233 Log(2)
Compound vs. Control, ratio Log(2) value (human skin model; gene CXCL2 (MIP2A_HUMAN, Macrophage inflammatory protein 2-alpha precursor)): −1.267 Log(2)
Compound vs. Control, ratio Log(2) value (human skin model; gene CXCL3 (MIP2B_HUMAN, Macrophage inflammatory protein 2-beta precursor)): −0.723 Log(2)
Compound vs. Control, ratio Log(2) value (human skin model; gene CXCL5 (CXCL5_HUMAN, C-X-C motif chemokine 5 precursor)): −0.8263 Log(2)
Compound vs. Control, ratio Log(2) value (human skin model; gene CXCL12 (SDF1_HUMAN, Stromal cell-derived factor 1 precursor)): −0.8377 Log(2)
Compound vs. Control, ratio Log(2) value (human skin model; gene EGFR (EGFR_HUMAN, Epidermal growth factor receptor precursor)): 0.9876 Log(2)
Compound vs. Control, ratio Log(2) value (human skin model; gene ELF3 (ELF3_HUMAN, ETS-related transcription factor Elf-3)): −1.46 Log(2)
Compound vs. Control, ratio Log(2) value (human skin model; gene ELN (ELN_HUMAN, Elastin precursor)): 0.7751 Log(2)
Compound vs. Control, ratio Log(2) value (human skin model; gene EMP1 (EMP1_HUMAN, Epithelial membrane protein 1)): 1.278 Log(2)
Compound vs. Control, ratio Log(2) value (human skin model; gene EMR2 (EMR2_HUMAN, EGF-like module-containing mucin-like hormone receptor-like 2 precursor)): 1.286 Log(2)
Compound vs. Control, ratio Log(2) value (human skin model; gene FABP4 (FABPA_HUMAN, Fatty acid-binding protein, adipocyte)): 2.125 Log(2)
Compound vs. Control, ratio Log(2) value (human skin model; gene FGF11 (FGF11_HUMAN, Fibroblast growth factor 11)): 0.9322 Log(2)
Compound vs. Control, ratio Log(2) value (human skin model; gene FLNB (FLNB_HUMAN, Filamin-B)): 0.6681 Log(2)
Compound vs. Control, ratio Log(2) value (human skin model; gene FN1 (FINC_HUMAN, Fibronectin precursor)): 1.364 Log(2)
Compound vs. Control, ratio Log(2) value (human skin model; gene GPC4 (GPC4_HUMAN, Glypican-4 precursor)): 0.7558 Log(2)
Compound vs. Control, ratio Log(2) value (human skin model; gene GPC6 (GPC6_HUMAN, Glypican-6 precursor)): 0.6711 Log(2)
Compound vs. Control, ratio Log(2) value (human skin model; gene GPX7 (GPX7_HUMAN, Glutathione peroxidase 7 precursor)): 0.8162 Log(2)
Compound vs. Control, ratio Log(2) value (human skin model; gene HAS2 (HAS2_HUMAN, Hyaluronan synthase 2)): 0.8154 Log(2)
Compound vs. Control, ratio Log(2) value (human skin model; gene ICAM1 (ICAM1_HUMAN, Intercellular adhesion molecule 1 precursor)): −1.612 Log(2)
Compound vs. Control, ratio Log(2) value (human skin model; gene IL6 (IL6_HUMAN, Interleukin-6 precursor)): −1.09 Log(2)
Compound vs. Control, ratio Log(2) value (human skin model; gene IL6ST (IL6RB_HUMAN, Interleukin-6 receptor subunit beta precursor)): −1.628 Log(2)
Compound vs. Control, ratio Log(2) value (human skin model; gene IL8 (IL8_HUMAN, Interleukin-8 precursor)): −0.6883 Log(2)
Compound vs. Control, ratio Log(2) value (human skin model; gene INSIG2 (INSI2_HUMAN, Insulin-induced gene 2 protein)): 0.6645 Log(2)
Compound vs. Control, ratio Log(2) value (human skin model; gene ITGB5 (ITB5_HUMAN, Integrin beta-5 precursor)): 0.7305 Log(2)
Compound vs. Control, ratio Log(2) value (human skin model; gene ITIH5 (ITIH5_80760, inter-alpha (globulin) inhibitor H5)): 1.192 Log(2)
Compound vs. Control, ratio Log(2) value (human skin model; gene LAMA3 (LAMA3_HUMAN, Laminin subunit alpha-3 precursor)): 0.6648 Log(2)
Compound vs. Control, ratio Log(2) value (human skin model; gene LAMB3 (LAMB3_HUMAN, Laminin subunit beta-3 precursor)): 1.168 Log(2)
Compound vs. Control, ratio Log(2) value (human skin model; gene LAMC1 (LAMC1_HUMAN, Laminin subunit gamma-1 precursor)): 0.7744 Log(2)
Compound vs. Control, ratio Log(2) value (human skin model; gene LEP (LEP_HUMAN, Leptin precursor)): 3.891 Log(2)
Compound vs. Control, ratio Log(2) value (human skin model; gene LEPR (LEPR_HUMAN, Leptin receptor precursor)): 0.7216 Log(2)
Compound vs. Control, ratio Log(2) value (human skin model; gene MMP9 (MMP9_HUMAN, Matrix metalloproteinase-9 precursor)): −0.8347 Log(2)
Compound vs. Control, ratio Log(2) value (human skin model; gene MMP11 (MMP11_HUMAN, Stromelysin-3 precursor)): −1.085 Log(2)
Compound vs. Control, ratio Log(2) value (human skin model; gene MMP14 (MMP14_HUMAN, Matrix metalloproteinase-14 precursor)): −0.6909 Log(2)
Compound vs. Control, ratio Log(2) value (human skin model; gene PLOD2 (PLOD2_HUMAN, Procollagen-lysine,2-oxoglutarate 5-dioxygenase 2 precursor)): 1.455 Log(2)
Compound vs. Control, ratio Log(2) value (human skin model; gene RXRA (RXRA_HUMAN, Retinoic acid receptor RXR-alpha)): 0.7793 Log(2)
Compound vs. Control, ratio Log(2) value (human skin model; gene S100A7 (S10A7_HUMAN, Protein S100-A7)): −0.6784 Log(2)
Compound vs. Control, ratio Log(2) value (human skin model; gene S100A7A (S1A7A_HUMAN, Protein S100-A7A)): −2.659 Log(2)
Compound vs. Control, ratio Log(2) value (human skin model; gene S100A12 (S10AC_HUMAN, Protein S100-A12)): −0.7202 Log(2)
Compound vs. Control, ratio Log(2) value (human skin model; gene SCARB1 (SCRB1_HUMAN, Scavenger receptor class B member 1)): 0.8349 Log(2)
Compound vs. Control, ratio Log(2) value (human skin model; gene TGFA (TGFA_HUMAN, Protransforming growth factor alpha precursor)): 0.8031 Log(2)
Compound vs. Control, ratio Log(2) value (human skin model; gene UGCG (CEGT_HUMAN, Ceramide glucosyltransferase)): 0.7977 Log(2)
Compound vs. Control, ratio Log(2) value (human skin model; gene VLDLR (VLDLR_HUMAN, Very low-density lipoprotein receptor precursor)): 0.9666 Log(2)
effect on GPC6 and S100A7 genes compared with old skin (human skin model; old skin (literature): S100A7 upregulated, GPC6 downregulated): opposite effect
expression of epidermal differentiation proteins [4]: increased expression
